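Test compounds were applied to cells in 96-well plates for 48 hours at 5 doses. At the GI50, growth is halved. TGI is the concentration that stops growth completely.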
Tests used:
Test in all cases: DTP human tumour cell line panel, 48 h
DU-145 prostate = test system: DU-145 prostate
EKVX NSCLC = test system: EKVX NSCLC
HS 578T breast = test system: HS 578T breast
MOLT-4 leukemia = test system: MOLT-4 leukemia
OVCAR-4 ovarian = test system: OVCAR-4 ovarian
RXF 393 renal = test system: RXF 393 renal
SNB-19 CNS = test system: SNB-19 CNS
TK-10 renal = test system: TK-10 renal
UO-31 renal = test system: UO-31 renal
MCF7 breast = test system: MCF7 breast

Row | SMILES | GI50 (DU-145 prostate) [µM] | TGI (DU-145 prostate) [µM] | GI50 (EKVX NSCLC) [µM] | TGI (EKVX NSCLC) [µM] | GI50 (HS 578T breast) [µM] | TGI (HS 578T breast) [µM] | GI50 (MOLT-4 leukemia) [µM] | TGI (MOLT-4 leukemia) [µM] | GI50 (OVCAR-4 ovarian) [µM] | TGI (OVCAR-4 ovarian) [µM] | GI50 (RXF 393 renal) [µM] | TGI (RXF 393 renal) [µM] | GI50 (SNB-19 CNS) [µM] | TGI (SNB-19 CNS) [µM] | GI50 (TK-10 renal) [µM] | TGI (TK-10 renal) [µM] | GI50 (UO-31 renal) [µM] | TGI (UO-31 renal) [µM] | GI50 (MCF7 breast) [µM] | TGI (MCF7 breast) [µM]
1 | [Cl][Hg][c]1ccc(Cl)s1 | 4.56 | 17.6 | 5.72 | 20.2 | 4.41 | 73.7 | 1.64 | 6.68 | 1.76 | 4.78 | 1.56 | 2.95 | 3.15 | 13.4 | 1.66 | 3.09 | 1.78 | 3.26 | – | –
2 | O=c1c2ccccc2nc(/C=C(\O)c2ccncc2)n1-c1ccc(Cl)cc1 | – | – | – | > 100 | – | – | – | > 100 | – | > 100 | – | – | – | > 100 | – | > 100 | – | > 100 | – | –
3 | C=C1C(=O)O[C@H]2[C@H]1CC/C(C=Nc1c(N)cc(C(F)(F)F)cc1C(F)(F)F)=C\CC[C@@]1(C)O[C@@H]21 | 1.63 | 3.09 | – | – | 1.67 | 7.45 | 0.517 | > 100 | 1.52 | 3.05 | 1.24 | 2.74 | 1.93 | 4.98 | 1.38 | 2.69 | 1.07 | 2.38 | 0.498 | 2.34
4 | CCOC(=O)C(N=C(c1ccccc1)c1ccccc1)N(C(=O)OC(C)(C)C)C(=O)OC(C)(C)C (configuration not stated) | – | – | – | > 100 | – | – | – | > 100 | – | > 100 | – | > 100 | – | > 100 | – | > 100 | – | > 100 | – | –
5 | CCNC(=O)Nc1ccc(Oc2ccnc3ccc4c(ccn4C)c23)cc1 | > 100 | > 100 | > 100 | > 100 | – | – | 58.2 | > 100 | 54.2 | > 100 | 17.9 | > 100 | 40.1 | > 100 | 33.5 | 99.3 | 92.3 | > 100 | 37.9 | > 100
6 | O=C(NCc1cccnc1)C1COc2cc(-c3cc(=O)c4ccccc4o3)ccc2O1 (configuration not stated) | – | – | – | > 100 | – | – | – | > 100 | – | > 100 | – | > 61.2 | – | > 67.2 | – | > 83.4 | – | > 100 | – | –
7 | Cc1cc(C)n(-c2ccnc3cc(Cl)ccc23)n1 | – | – | – | > 100 | – | – | – | > 100 | – | > 100 | – | > 100 | – | > 100 | – | > 100 | – | > 100 | – | –
8 | N#C[Se]CCN1C(=O)C2C(C1=O)[C@H]1C=C[C@@H]2S1 (some centres not stated) | – | – | 1.83 | 4.28 | 1.75 | 6.21 | 1.31 | 8.06 | 1.85 | 6.1 | 1.63 | 3.27 | – | – | 2.16 | 4.44 | 1.36 | 2.9 | 2.37 | 9.19
9 | CONC(C)=O | – | > 100 | – | > 100 | – | > 100 | – | > 100 | – | – | – | – | – | > 100 | – | > 100 | – | > 100 | – | > 100
10 | COC(=O)c1ccccc1N1C(=O)Cc2ccccc2C1=O | – | – | – | > 100 | – | – | – | > 100 | – | – | – | > 100 | – | > 100 | – | > 100 | – | > 100 | – | –
11 | CCOC(=O)Nc1nc2ccc(Br)cc2s1 | > 50 | > 50 | – | – | > 50 | > 50 | > 50 | > 50 | > 50 | > 50 | > 50 | > 50 | > 50 | > 50 | > 50 | > 50 | > 50 | > 50 | > 50 | > 50
12 | COc1ccc(Cn2cc3c(c2-c2ccccc2)CCc2cnoc2-3)cc1OC | – | – | 1.66 | > 100 | 0.564 | 6.94 | 1.05 | > 100 | 3.56 | > 100 | 1.68 | > 100 | 2.79 | > 100 | 2.3 | > 100 | 2.24 | > 100 | 0.574 | > 100
13 | C/C(CC(=O)Nc1cc(C)ccc1C)=N/N=C(N)N | – | – | – | > 100 | – | – | – | > 100 | – | – | – | > 100 | – | – | – | > 100 | – | > 100 | – | –
14 | Cc1ccc2c(c1)c(Sc1ccc(C(=O)NO)cc1)c1n2CN(C)CC1 | 1.83 | 5.28 | – | – | 2.25 | 13 | 2.05 | 6.98 | 1.51 | 9.04 | 1.74 | 5.86 | 2.13 | 7.27 | 2.19 | 6.73 | 2.15 | 9.1 | 2.44 | 11.5
15 | CC(C)(C)[Si](C)(C)OC1[C@@H](O[Si](C)(C)C(C)(C)C)[C@@H](CNC(=O)NC(=O)CF)O[C@H]1n1cnc2c(NC(=O)Nc3ccccc3)ncnc21 (some centres not stated) | 17.7 | > 50 | – | – | 10.1 | > 50 | 4.19 | 43.7 | 6.18 | > 50 | 1.35 | 4.57 | – | – | 16.5 | 41.7 | 11.2 | > 50 | 1.78 | 13.2
16 | CC1(Br)CC2OC3(Br)C=CC(C)(O)C2(CC1=O)C3(C)C (configuration not stated) | – | – | – | > 100 | – | – | – | > 100 | – | > 100 | – | – | – | > 100 | – | > 100 | – | > 100 | – | –
17 | O=C1[C@@H]2C(c3ccccc3[N+](=O)[O-])=[N+](c3ccccc3)O[C@@H]2C(=O)N1c1ccc(Cc2ccc(N3C(=O)[C@H]4C(c5ccccc5[N+](=O)[O-])=[N+](c5ccccc5)O[C@H]4C3=O)cc2)cc1 | – | – | – | > 100 | – | – | – | > 100 | – | > 100 | – | > 100 | – | > 100 | – | > 100 | – | > 100 | – | –
18 | O=C(c1ccccc1)C(c1ccccc1)C1(O)C(=O)Nc2ccc([N+](=O)[O-])cc21 (configuration not stated) | – | – | – | > 100 | – | – | – | > 100 | – | > 100 | – | > 100 | – | > 100 | – | > 100 | – | > 100 | – | –
19 | CCC(O)C1Cc2c(C)cc3c(c2O1)C(=O)c1ccccc1C3=O (configuration not stated) | – | – | – | > 100 | – | – | – | > 100 | – | > 100 | – | – | – | > 100 | – | > 100 | – | 61.2 | – | –
